Results as given in PubChem BioAssay (NCI).
Several values for one entry are separate records, joined by “and”; a condition that tells them apart may be missing. Equal entries are not always repeated.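 All cell lines were grown in 96-well plates and treated with compound for 48 hours. The concentration for 50% growth inhibition is given as GI50. Definition used: TGI = concentration required for complete inhibition of growth.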

Tests used:
Experiment in all cases: NCI-60 cell line screen, 48 h
786-0 renal = system: 786-0 renal
A549 NSCLC = system: A549 NSCLC
LOX IMVI melanoma = system: LOX IMVI melanoma
MDA-N = system: MDA-N
MOLT-4 leukemia = system: MOLT-4 leukemia
NCI-H460 lung = system: NCI-H460 lung
OVCAR-8 ovarian = system: OVCAR-8 ovarian
SF-268 CNS = system: SF-268 CNS
SK-MEL-28 melanoma = system: SK-MEL-28 melanoma
SN12C renal = system: SN12C renal
UACC-257 melanoma = system: UACC-257 melanoma

Row | SMILES | TGI (786-0 renal) | TGI (A549 NSCLC) | TGI (LOX IMVI melanoma) | TGI (MDA-N) | TGI (MOLT-4 leukemia) | TGI (NCI-H460 lung) | TGI (OVCAR-8 ovarian) | TGI (SF-268 CNS) | TGI (SK-MEL-28 melanoma) | TGI (SN12C renal) | TGI (UACC-257 melanoma) | GI50 (A549 NSCLC) | GI50 (LOX IMVI melanoma) | GI50 (MOLT-4 leukemia) | GI50 (NCI-H460 lung) | GI50 (OVCAR-8 ovarian) | GI50 (SF-268 CNS) | GI50 (SK-MEL-28 melanoma) | GI50 (SN12C renal)
1 | O=C1OC[C@@H]2Cc3c([nH]c4ccccc34)[C@@H](c3ccc(O)cc3)N12 | > 100 µM | 75.8 µM | 46.3 µM | > 100 µM | > 75.3 µM | 81.4 µM | > 71.7 µM | > 100 µM | > 100 µM | > 89.7 µM | 72.2 µM | – | – | – | – | – | – | – | –
2 | CCOC(=O)c1c(SCCN2CCCC2)n(-c2ccccc2)c(=S)n(-c2ccccc2)c1=O | 2.89 µM | 14.6 µM | 3.79 µM | 6.01 µM | 5.11 µM | 12.3 µM | 4.29 µM | 10.1 µM | 7.48 µM | 3.18 µM | 3.34 µM | – | – | – | – | – | – | – | –
3 | CC(C)=CC1C(C(=O)O)C1(C)C (centres undefined) | – | > 750 µM | > 750 µM | – | > 750 µM | > 750 µM | > 750 µM | > 750 µM | > 750 µM | > 750 µM | > 750 µM | – | – | – | – | – | – | – | –
4 | CCOC(=O)C1C(=O)CC(O)(c2ccccc2)C(C(=O)OCC)C1c1ccc(OC)cc1 (centres undefined) | > 59.2 µM | > 100 µM | > 64.7 µM | 16 µM | > 82 µM | > 100 µM | > 100 µM | > 100 µM | > 100 µM | > 100 µM | > 100 µM | – | – | – | – | – | – | – | –
5 | CC1=CC(=O)N(n2c(C)n[nH]c2=O)C1=O | > 100 µM | > 100 µM | > 100 µM | > 100 µM | > 100 µM | > 100 µM | > 100 µM | > 100 µM | – | > 100 µM | > 100 µM | – | – | – | – | – | – | – | –
6 | Cc1cc2cccc(Cl)c2nc1C(=O)c1ccccc1 | – | > 100 µM | > 100 µM | – | – | – | > 100 µM | > 100 µM | > 100 µM | > 100 µM | 66.9 µM | – | – | – | – | – | – | – | –
7 | CC1CC(C#N)=C2NCCCCN2C1=O (centres undefined) | > 100 µM | > 100 µM | > 100 µM | > 100 µM | > 100 µM | > 100 µM | > 100 µM | > 100 µM | > 100 µM | > 100 µM | > 100 µM | – | – | – | – | – | – | – | –
8 | COc1cc([C@@H]2c3cc4c(cc3C[C@H]3COC(=O)[C@@H]32)OCO4)cc(OC)c1OC | – | > 50 µM | > 50 µM | 0.00582 µM | 0.12 µM | < 0.005 µM | 0.324 µM | > 50 µM | > 50 µM | > 10.8 µM | > 5 µM | 0.00375 µM | 0.00281 µM and 0.005 µM | 0.00428 µM | 0.00327 µM and < 0.005 µM | 0.00407 µM | 0.00581 µM | 0.00645 µM | 0.0067 µM
9 | O=C1NC(=S)NC(=O)C1C(c1ccccc1[N+](=O)[O-])C1C(=O)NC(=S)NC1=O | > 100 µM | > 100 µM | > 100 µM | > 100 µM | > 100 µM | > 100 µM | > 100 µM | > 100 µM | > 100 µM | > 100 µM | > 100 µM | – | – | – | – | – | – | – | –
10 | Cc1cc(O)cc(O)c1N=Nc1ccc([N+](=O)[O-])cc1 | – | > 100 µM | 84.8 µM | 83.9 µM | 17.3 µM | 61 µM | > 100 µM | > 100 µM | 61 µM | 54 µM | 79.5 µM | – | – | – | – | – | – | – | –
11 | Cc1oc2nc(N(C)C)n3nnnc3c2c1C | > 100 µM | > 100 µM | > 100 µM | – | > 100 µM | – | > 100 µM | > 100 µM | > 100 µM | > 100 µM | > 100 µM | – | – | – | – | – | – | – | –
12 | O=c1c2cc(I)ccc2[nH]c(=S)n1Cc1ccccc1 | 63 µM | > 100 µM | > 100 µM | > 100 µM | > 100 µM | > 100 µM | > 100 µM | 57.5 µM | > 100 µM | > 100 µM | > 100 µM | – | – | – | – | – | – | – | –
13 | N#CSCc1cccc(Nc2cc(=O)[nH]c(=O)[nH]2)c1 | > 100 µM | > 100 µM | > 100 µM | > 100 µM | – | > 100 µM | > 100 µM | 78.4 µM | > 100 µM | > 100 µM | > 100 µM | – | – | – | – | – | – | – | –
14 | Brc1ccc2c3c1[C@@H]1O[C@@H]1c1cccc(c1-3)[C@@H]1O[C@H]21 | 51.1 µM | > 92.1 µM | 6.86 µM | 53.5 µM | > 100 µM | – | 30.8 µM | 63.1 µM | 50.3 µM | 45.9 µM | 98.4 µM | – | – | – | – | – | – | – | –
15 | CCOC(=O)c1cnc2[nH]ccn2c1=O | > 10 µM | > 10 µM | > 10 µM | > 10 µM | > 10 µM | > 10 µM | > 10 µM | > 10 µM | > 10 µM | > 10 µM | > 10 µM | – | – | – | – | – | – | – | –
16 | COC(=O)C1CC(C=[N+](C)C)=C(SC)N1 (centres undefined) | > 100 µM | – | – | > 100 µM | > 100 µM | > 100 µM | > 100 µM | > 100 µM | > 100 µM | – | > 100 µM | – | – | – | – | – | – | – | –
17 | NCCCC(N)C(=O)O (centres undefined) | > 100 µM | > 100 µM | > 100 µM | > 100 µM | > 100 µM | > 100 µM | > 100 µM | > 100 µM | > 100 µM | > 100 µM | > 100 µM | – | – | – | – | – | – | – | –
18 | O=C1C(C=NCCc2c[nH]c3ccccc23)C(C(F)(F)F)=NN1c1nc2ccccc2s1 (centres undefined) | > 100 µM | > 100 µM | 78.6 µM | > 100 µM | 60.4 µM | 62.4 µM | > 100 µM | > 100 µM | > 100 µM | > 100 µM | 41.9 µM | – | – | – | – | – | – | – | –
19 | CN(O)C(=O)Cc1ccc(OCc2cccc(Cl)c2)cc1 | > 100 µM | > 100 µM | > 100 µM | > 100 µM | > 100 µM | > 100 µM | > 100 µM | > 100 µM | > 100 µM | > 100 µM | > 100 µM | – | – | – | – | – | – | – | –
20 | COc1cc2c(cc1OC)C(=O)/C(=C/c1cc(C)c(O)c(C)c1)C2 | – | > 100 µM | > 47.3 µM | – | > 100 µM | > 100 µM | – | > 100 µM | > 100 µM | > 100 µM | > 100 µM | – | – | – | – | – | – | – | –
